Data taken from ChEMBL document CHEMBL1201862, “PubChem BioAssay data set” (2004).
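Grown in 96-well plates, cells were treated for 48 hours with each compound at five concentrations. Insufficient inhibition: endpoint recorded as highest concentration tested. GI50 marks 50% less growth.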 Calls of active or inactive are those of the source. Rule as the data show it: active = GI50 up to about 1.1 µM and inactive = higher.

Legend:
Assay in all cases: DTP human tumour cell line panel, 48 h
[1] = test system: TK-10
[2] = test system: SNB-75
[3] = test system: MOLT-4
[4] = test system: SF-539
[5] = test system: PC-3
[6] = test system: NCI/ADR-RES
[7] = test system: LOX IMVI
[8] = test system: ACHN
[9] = test system: CCRF-CEM
[10] = test system: A549
[11] = test system: 786-0
[12] = test system: EKVX
[13] = test system: SF-295
[14] = test system: UACC-62
[15] = test system: Hs-578T
[16] = test system: SR
[17] = test system: HCT-15
[18] = test system: SK-OV-3
[19] = test system: MDA-MB-435
[20] = test system: BT-549
[21] = test system: MDA-MB-231
[22] = test system: K562
[23] = test system: HCC 2998
[24] = test system: HOP-62
[25] = test system: OVCAR-5
[26] = test system: T47D
[27] = test system: OVCAR-8
[28] = test system: MDA-N
[29] = test system: Malme-3M
[30] = test system: OVCAR-4
[31] = test system: OVCAR-3
[32] = test system: NCI-H226
[33] = test system: KM12
[34] = test system: HT-29
[35] = test system: SNB-19
[36] = test system: CAKI-1
[37] = test system: COLO 205
[38] = test system: RXF 393
[39] = test system: SF-268
[40] = test system: HOP-92
[41] = test system: SW-620
[42] = test system: M14
[43] = test system: SK-MEL-2
[44] = test system: NCI-H23
[45] = test system: U-251
[46] = test system: MCF7
[47] = test system: UACC-257
[48] = test system: DU-145
[49] = test system: HCT-116
[50] = test system: SN12C
[51] = test system: SK-MEL-28
[52] = test system: RPMI-8226
[53] = test system: IGROV-1
[54] = test system: UO-31
[55] = test system: A498
[56] = test system: NCI-H522
[57] = test system: NCI-H460
[58] = test system: SK-MEL-5

SMILES: CCN(CC)CCC(=O)c1ccc(Oc2ccccc2)cc1
- GI50 [1]: 14.2 µM (inactive)
- GI50 [2]: 19.5 µM (inactive)
- GI50 [3]: 20 µM (inactive)
- GI50 [4]: 18.6 µM (inactive)
- GI50 [5]: 39 µM (inactive)
- GI50 [6]: 21.9 µM (inactive)
- GI50 [7]: 16.8 µM (inactive)
- GI50 [8]: 15.8 µM (inactive)
- GI50 [9]: 22.1 µM (inactive)
- GI50 [10]: > 100 µM (inactive)
- GI50 [11]: 15.6 µM (inactive)
- GI50 [12]: 20.8 µM (inactive)
- GI50 [13]: 55.3 µM (inactive)
- GI50 [14]: 15.9 µM (inactive)
- GI50 [15]: 18.2 µM (inactive)
- GI50 [16]: 39.4 µM (inactive)
- GI50 [17]: 17.4 µM
- GI50 [18]: > 100 µM (inactive)
- GI50 [19]: 20.7 µM (inactive)
- GI50 [20]: 18.7 µM (inactive)
- GI50 [21]: 20.7 µM (inactive)
- GI50 [22]: 35.3 µM (inactive)
- GI50 [23]: 17.6 µM (inactive)
- GI50 [24]: 27.5 µM (inactive)
- GI50 [25]: 20.7 µM (inactive)
- GI50 [26]: 19 µM (inactive)
- GI50 [27]: 39.7 µM (inactive)
- GI50 [28]: 16.5 µM (inactive)
- GI50 [29]: 15.1 µM (inactive)
- GI50 [30]: 23.9 µM (inactive)
- GI50 [31]: 19.7 µM (inactive)
- GI50 [32]: > 100 µM (inactive)
- GI50 [33]: 13.1 µM (inactive)
- GI50 [34]: 19.1 µM (inactive)
- GI50 [35]: 18.9 µM (inactive)
- GI50 [36]: 16.7 µM (inactive)
- GI50 [37]: 17.7 µM (inactive)
- GI50 [38]: 18.9 µM (inactive)
- GI50 [39]: 20.8 µM (inactive)
- GI50 [40]: 15.8 µM (inactive)
- GI50 [41]: 17.1 µM (inactive)
- GI50 [42]: 38.1 µM (inactive)
- GI50 [43]: 97.7 µM (inactive)
- GI50 [44]: 25.1 µM (inactive)
- GI50 [45]: 17.9 µM (inactive)
- GI50 [46]: 17.9 µM (inactive)
- GI50 [47]: 17.2 µM (inactive)
- GI50 [48]: 27.7 µM (inactive)
- GI50 [49]: 17.9 µM (inactive)
- GI50 [50]: 17.6 µM (inactive)
- GI50 [51]: 17.5 µM (inactive)
- GI50 [52]: 5.79 µM (inactive)
- GI50 [53]: 17.1 µM (inactive)

SMILES: Cc1ccc2nc3[nH]nc(N)c3nc2c1
- GI50 [1]: 28 µM (inactive)
- GI50 [2]: 64 µM (inactive)
- GI50 [54]: 52 µM (inactive)
- GI50 [55]: 85.3 µM (inactive)
- GI50 [3]: 68.5 µM (inactive)
- GI50 [4]: > 100 µM (inactive)
- GI50 [5]: 93.3 µM (inactive)
- GI50 [6]: > 100 µM (inactive)
- GI50 [7]: > 100 µM (inactive)
- GI50 [8]: 99.3 µM (inactive)
- GI50 [9]: > 100 µM (inactive)
- GI50 [10]: > 100 µM (inactive)
- GI50 [11]: > 100 µM (inactive)
- GI50 [12]: 20.9 µM (inactive)
- GI50 [13]: > 100 µM (inactive)
- GI50 [14]: 44.2 µM (inactive)
- GI50 [15]: 89.3 µM (inactive)
- GI50 [16]: > 100 µM (inactive)
- GI50 [17]: 91 µM
- GI50 [56]: > 100 µM (inactive)
- GI50 [18]: > 100 µM (inactive)
- GI50 [19]: > 100 µM (inactive)
- GI50 [20]: 67 µM (inactive)
- GI50 [21]: > 100 µM (inactive)
- GI50 [23]: > 100 µM (inactive)
- GI50 [24]: > 100 µM (inactive)
- GI50 [25]: > 100 µM (inactive)
- GI50 [26]: 65.3 µM (inactive)
- GI50 [27]: > 100 µM (inactive)
- GI50 [57]: > 100 µM (inactive)
- GI50 [28]: 51.1 µM (inactive)
- GI50 [29]: > 100 µM (inactive)
- GI50 [30]: > 100 µM (inactive)
- GI50 [31]: > 100 µM (inactive)
- GI50 [32]: 45.3 µM (inactive)
- GI50 [33]: 54.6 µM (inactive)
- GI50 [34]: > 100 µM (inactive)
- GI50 [35]: > 100 µM (inactive)
- GI50 [36]: 42.6 µM (inactive)
- GI50 [37]: > 100 µM (inactive)
- GI50 [38]: 60 µM (inactive)
- GI50 [39]: > 100 µM (inactive)
- GI50 [40]: 87.1 µM (inactive)
- GI50 [41]: > 100 µM (inactive)
- GI50 [42]: > 100 µM (inactive)
- GI50 [43]: > 100 µM (inactive)
- GI50 [44]: > 100 µM (inactive)
- GI50 [45]: > 100 µM (inactive)
- GI50 [46]: > 100 µM (inactive)
- GI50 [47]: > 100 µM (inactive)
- GI50 [48]: > 100 µM (inactive)
- GI50 [49]: > 100 µM (inactive)
- GI50 [50]: > 100 µM (inactive)
- GI50 [51]: > 100 µM (inactive)
- GI50 [52]: 72.6 µM (inactive)
- GI50 [53]: 37 µM (inactive)
- GI50 [58]: > 100 µM (inactive)

SMILES: COc1ccc2c(c1OC)C(=O)O[C@@H]2[C@H]1c2c(cc3c(c2OC)OCO3)CCN1C [NOSCAPINE]
- GI50 [2]: 4.86 µM (inactive)
- GI50 [54]: 69 µM (inactive)
- GI50 [55]: > 100 µM (inactive)
- GI50 [3]: 23.5 µM (inactive)
- GI50 [4]: 30.8 µM (inactive)
- GI50 [5]: 50.1 µM (inactive)
- GI50 [6]: 43.8 µM (inactive)
- GI50 [7]: 37.2 µM (inactive)
- GI50 [8]: 62.5 µM (inactive)
- GI50 [9]: 12.9 µM (inactive)
- GI50 [10]: 72.9 µM (inactive)
- GI50 [11]: 49.9 µM (inactive)
- GI50 [13]: 30.3 µM (inactive)
- GI50 [14]: 56.9 µM (inactive)
- GI50 [15]: 21.1 µM (inactive)
- GI50 [16]: 38.8 µM (inactive)
- GI50 [17]: 43.4 µM
- GI50 [56]: 30.3 µM (inactive)
- GI50 [18]: 73.1 µM (inactive)
- GI50 [19]: 4.86 µM (inactive)
- GI50 [20]: 45.7 µM (inactive)
- GI50 [21]: 76.6 µM (inactive)
- GI50 [22]: 33 µM (inactive)
- GI50 [23]: 79.4 µM (inactive)
- GI50 [24]: 71.4 µM (inactive)
- GI50 [25]: > 100 µM (inactive)
- GI50 [26]: > 100 µM (inactive)
- GI50 [27]: 63.5 µM (inactive)
- GI50 [57]: 39.9 µM (inactive)
- GI50 [28]: 23.1 µM (inactive)
- GI50 [29]: 33.5 µM (inactive)
- GI50 [30]: > 100 µM (inactive)
- GI50 [31]: 16.5 µM (inactive)
- GI50 [32]: > 100 µM (inactive)
- GI50 [33]: 45.8 µM (inactive)
- GI50 [34]: 40 µM (inactive)
- GI50 [35]: 80.5 µM (inactive)
- GI50 [36]: 63 µM (inactive)
- GI50 [37]: 63.5 µM (inactive)
- GI50 [38]: > 100 µM (inactive)
- GI50 [39]: 71.8 µM (inactive)
- GI50 [40]: > 100 µM (inactive)
- GI50 [41]: 27 µM (inactive)
- GI50 [42]: 39.2 µM (inactive)
- GI50 [43]: 34.1 µM (inactive)
- GI50 [44]: 79.1 µM (inactive)
- GI50 [45]: 41 µM (inactive)
- GI50 [46]: 42.3 µM (inactive)
- GI50 [47]: 55.1 µM (inactive)
- GI50 [48]: > 100 µM (inactive)
- GI50 [49]: 50.5 µM (inactive)
- GI50 [50]: > 100 µM (inactive)
- GI50 [51]: 42.1 µM (inactive)
- GI50 [52]: 23.3 µM (inactive)
- GI50 [53]: 62.7 µM (inactive)
- GI50 [58]: 48.3 µM (inactive)
